According to ChEMBL document CHEMBL1201862, “PubChem BioAssay data set” (2004):
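Interpolation was linear, between the two tested concentrations surrounding the appropriate level; five concentrations were tested over 48 hours in 96-well plates. Abbreviation: GI50, concentration required for 50% inhibition of growth.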 Calls of active or inactive are those of the source. Cut-off read from the data, not from the text of the source: active = GI50 up to about 1.1 µM and inactive = higher.

Tests used:
Assay in all cases: DTP human tumour cell line panel, 48 h
UACC-257 = test system: UACC-257
SF-295 = test system: SF-295
NCI-H23 = test system: NCI-H23
HCC 2998 = test system: HCC 2998
COLO 205 = test system: COLO 205
ACHN = test system: ACHN
UO-31 = test system: UO-31
UACC-62 = test system: UACC-62
HOP-62 = test system: HOP-62
LOX IMVI = test system: LOX IMVI
KM12 = test system: KM12
DMS-114 = test system: DMS-114
A549 = test system: A549
SK-MEL-28 = test system: SK-MEL-28
SR = test system: SR
RPMI-8226 = test system: RPMI-8226
EKVX = test system: EKVX
HOP-18 = test system: HOP-18
M14 = test system: M14
OVCAR-3 = test system: OVCAR-3
CCRF-CEM = test system: CCRF-CEM
HT-29 = test system: HT-29
SN12C = test system: SN12C
NCI-H226 = test system: NCI-H226
RXF 393 = test system: RXF 393
SF-268 = test system: SF-268
K562 = test system: K562
HL-60 = test system: HL-60
TK-10 = test system: TK-10
OVCAR-4 = test system: OVCAR-4
SNB-78 = test system: SNB-78
SNB-75 = test system: SNB-75
SNB-19 = test system: SNB-19
LXFL 529 = test system: LXFL 529
SW-620 = test system: SW-620
DLD-1 = test system: DLD-1
IGROV-1 = test system: IGROV-1
SK-MEL-5 = test system: SK-MEL-5
NCI-H460 = test system: NCI-H460
A498 = test system: A498
NCI-H522 = test system: NCI-H522
XF498 = test system: XF498
OVCAR-8 = test system: OVCAR-8
OVCAR-5 = test system: OVCAR-5
786-0 = test system: 786-0
Malme-3M = test system: Malme-3M
SK-OV-3 = test system: SK-OV-3
HOP-92 = test system: HOP-92
U-251 = test system: U-251
HCT-15 = test system: HCT-15
SK-MEL-2 = test system: SK-MEL-2
MOLT-4 = test system: MOLT-4
HCT-116 = test system: HCT-116
KM-20L2 = test system: KM-20L2
SF-539 = test system: SF-539
CAKI-1 = test system: CAKI-1
DMS-273 = test system: DMS-273
M19-MEL = test system: M19-MEL
MDA-MB-231 = test system: MDA-MB-231
DU-145 = test system: DU-145
MCF7 = test system: MCF7
PC-3 = test system: PC-3
BT-549 = test system: BT-549
MDA-N = test system: MDA-N
NCI/ADR-RES = test system: NCI/ADR-RES
MDA-MB-435 = test system: MDA-MB-435
Hs-578T = test system: Hs-578T
T47D = test system: T47D
RXF 631 = test system: RXF 631

## O=C(N[C@@H]1C=CCC[C@@H]1c1ccccc1)OCc1ccccc1
UACC-257
  GI50: 17.5 µM (inactive)
SF-295
  GI50: 20.4 µM (inactive)
NCI-H23
  GI50: 22.8 µM (inactive)
HCC 2998
  GI50: 20.6 µM (inactive)
COLO 205
  GI50: 18.5 µM (inactive)
ACHN
  GI50: 24 µM (inactive)
UO-31
  GI50: 18.1 µM (inactive)
UACC-62
  GI50: 14.1 µM (inactive)
HOP-62
  GI50: 18.5 µM (inactive)
LOX IMVI
  GI50: 15.2 µM (inactive)
KM12
  GI50: 17.5 µM (inactive)
DMS-114
  GI50: 21.7 µM (inactive)
A549
  GI50: 25.6 µM (inactive)
SK-MEL-28
  GI50: 21.9 µM (inactive)
SR
  GI50: 15.1 µM (inactive)
RPMI-8226
  GI50: 18 µM (inactive)
EKVX
  GI50: 23.2 µM (inactive)
HOP-18
  GI50: 19.2 µM (inactive)
M14
  GI50: 17.9 µM (inactive)
OVCAR-3
  GI50: 16.8 µM (inactive)
CCRF-CEM
  GI50: 16.4 µM (inactive)
HT-29
  GI50: 23.7 µM (inactive)
SN12C
  GI50: 16.9 µM (inactive)
NCI-H226
  GI50: 19 µM (inactive)
RXF 393
  GI50: 20.3 µM (inactive)
SF-268
  GI50: 25 µM (inactive)
K562
  GI50: 23.7 µM (inactive)
HL-60
  GI50: 11.6 µM (inactive)
TK-10
  GI50: 15.3 µM (inactive)
OVCAR-4
  GI50: 18.6 µM (inactive)
SNB-78
  GI50: 32.5 µM (inactive)
SNB-75
  GI50: 19.6 µM (inactive)
SNB-19
  GI50: 32.7 µM (inactive)
LXFL 529
  GI50: 18.8 µM (inactive)
SW-620
  GI50: 22.9 µM (inactive)
DLD-1
  GI50: 23.7 µM (inactive)
IGROV-1
  GI50: 24.2 µM (inactive)
SK-MEL-5
  GI50: 17.9 µM (inactive)
NCI-H460
  GI50: 17.9 µM (inactive)
A498
  GI50: 19.1 µM (inactive)
NCI-H522
  GI50: 14.8 µM (inactive)
XF498
  GI50: 19 µM (inactive)
OVCAR-8
  GI50: 20.1 µM (inactive)
OVCAR-5
  GI50: 17.8 µM (inactive)
786-0
  GI50: 18.7 µM (inactive)
Malme-3M
  GI50: 19.3 µM (inactive)
SK-OV-3
  GI50: 30.4 µM (inactive)
HOP-92
  GI50: 16.5 µM (inactive)
U-251
  GI50: 17.5 µM (inactive)
HCT-15
  GI50: 17.9 µM
SK-MEL-2
  GI50: 16.3 µM (inactive)
MOLT-4
  GI50: 13.1 µM (inactive)
HCT-116
  GI50: 18.1 µM (inactive)
KM-20L2
  GI50: 20 µM (inactive)
SF-539
  GI50: 18.9 µM (inactive)
CAKI-1
  GI50: 12.2 µM (inactive)
DMS-273
  GI50: 16.4 µM (inactive)
M19-MEL
  GI50: 21.5 µM (inactive)

## CCCCCCCCCCCC(=O)OCC(C[As](=O)(O)O)OC(=O)CCCCCCCCCCC (configuration not stated)
UACC-257
  GI50: 7.52 µM (inactive)
SF-295
  GI50: 10.4 µM (inactive)
NCI-H23
  GI50: 5.61 µM (inactive)
MDA-MB-231
  GI50: 4.54 µM (inactive)
HCC 2998
  GI50: 6.22 µM (inactive)
COLO 205
  GI50: 7.67 µM (inactive)
ACHN
  GI50: 2.24 µM (inactive)
UO-31
  GI50: 12.4 µM (inactive)
UACC-62
  GI50: 2.03 µM (inactive)
HOP-62
  GI50: 26.9 µM (inactive)
LOX IMVI
  GI50: 4.76 µM (inactive)
KM12
  GI50: 7.1 µM (inactive)
DMS-114
  GI50: 1.65 µM (inactive)
A549
  GI50: 8.2 µM (inactive)
SK-MEL-28
  GI50: 2.96 µM (inactive)
SR
  GI50: 3.64 µM (inactive)
RPMI-8226
  GI50: 7.4 µM (inactive)
EKVX
  GI50: 7.74 µM (inactive)
HOP-18
  GI50: 3.93 µM (inactive)
M14
  GI50: 1.97 µM (inactive)
OVCAR-3
  GI50: 8.81 µM (inactive)
CCRF-CEM
  GI50: 3.72 µM (inactive)
HT-29
  GI50: 7.62 µM (inactive)
SN12C
  GI50: 2.94 µM (inactive)
NCI-H226
  GI50: 16.2 µM (inactive)
RXF 393
  GI50: 2.43 µM (inactive)
SF-268
  GI50: 5.09 µM (inactive)
K562
  GI50: 5.32 µM (inactive)
HL-60
  GI50: 2.61 µM (inactive)
DU-145
  GI50: 17.5 µM (inactive)
TK-10
  GI50: 14.3 µM (inactive)
MCF7
  GI50: 3.93 µM (inactive)
OVCAR-4
  GI50: 15.1 µM (inactive)
PC-3
  GI50: 3.18 µM (inactive)
SNB-78
  GI50: 2.82 µM (inactive)
BT-549
  GI50: 7.1 µM (inactive)
SNB-75
  GI50: 6.95 µM (inactive)
MDA-N
  GI50: 4.48 µM (inactive)
SNB-19
  GI50: 3.28 µM (inactive)
LXFL 529
  GI50: 2.06 µM (inactive)
SW-620
  GI50: 12.1 µM (inactive)
NCI/ADR-RES
  GI50: 21.3 µM (inactive)
DLD-1
  GI50: 15.8 µM (inactive)
IGROV-1
  GI50: 1.74 µM (inactive)
SK-MEL-5
  GI50: 1.75 µM (inactive)
NCI-H460
  GI50: 4.05 µM (inactive)
A498
  GI50: 5.15 µM (inactive)
NCI-H522
  GI50: 2.13 µM (inactive)
XF498
  GI50: 2.9 µM (inactive)
OVCAR-8
  GI50: 11.7 µM (inactive)
OVCAR-5
  GI50: 18.1 µM (inactive)
786-0
  GI50: 13.4 µM (inactive)
Malme-3M
  GI50: 2.48 µM (inactive)
SK-OV-3
  GI50: 13.8 µM (inactive)
HOP-92
  GI50: 1.88 µM (inactive)
U-251
  GI50: 1.54 µM (inactive)
HCT-15
  GI50: 8.39 µM
SK-MEL-2
  GI50: 3.92 µM (inactive)
MOLT-4
  GI50: 3.96 µM (inactive)
MDA-MB-435
  GI50: 3.46 µM (inactive)
HCT-116
  GI50: 5.61 µM (inactive)
KM-20L2
  GI50: 5.66 µM (inactive)
SF-539
  GI50: 7.89 µM (inactive)
CAKI-1
  GI50: 9.27 µM (inactive)
Hs-578T
  GI50: 4.2 µM (inactive)
T47D
  GI50: 14.7 µM (inactive)
DMS-273
  GI50: 2.47 µM (inactive)
M19-MEL
  GI50: 4.25 µM (inactive)

## CCCCCCCCCCCCCCCCCC(=O)NCC(COP(=O)([O-])OCC[N+](C)(C)C)OCC (configuration not stated)
UACC-257
  GI50: 18.6 µM (inactive)
NCI-H23
  GI50: 19.7 µM (inactive)
UO-31
  GI50: 19.5 µM (inactive)
LOX IMVI
  GI50: 24.9 µM (inactive)
DMS-114
  GI50: 18.5 µM (inactive)
A549
  GI50: 19.2 µM (inactive)
SK-MEL-28
  GI50: 18.2 µM (inactive)
EKVX
  GI50: 21.9 µM (inactive)
SNB-19
  GI50: 0.174 µM (active)
SK-MEL-5
  GI50: 17.7 µM (inactive)
RXF 631
  GI50: 22.2 µM (inactive)
Malme-3M
  GI50: 21.3 µM (inactive)
SK-OV-3
  GI50: 19.4 µM (inactive)
KM-20L2
  GI50: 0.237 µM (active)
SF-539
  GI50: 17.7 µM (inactive)
DMS-273
  GI50: 0.137 µM (active)
